Reference: BigSolDB 2.1

O=P(c1ccccc1)(c1ccccc1)c1ccccc1
Conditions	solubility (mole fraction)
in benzene, 293.78 K	0.055
in benzene, 303.04 K	0.0747
in benzene, 314.12 K	0.0963
in benzene, 323.34 K	0.123
in benzene, 333.45 K	0.152
in ethyl acetate, 294.54 K	0.023
in ethyl acetate, 299.09 K	0.0275
in ethyl acetate, 303.3 K	0.0305
in ethyl acetate, 308.27 K	0.0348
in ethyl acetate, 313.72 K	0.0409
in ethyl acetate, 318.32 K	0.0496
in ethyl acetate, 323.21 K	0.0555
in ethyl acetate, 328.65 K	0.0659
in toluene, 294.42 K	0.0291
in toluene, 298.74 K	0.0346
in toluene, 303.15 K	0.0396
in toluene, 308.36 K	0.0487
in toluene, 313.53 K	0.0548
in toluene, 317.97 K	0.0666
in toluene, 323.13 K	0.0768
in toluene, 328.42 K	0.0882
in toluene, 333.77 K	0.0998
